The source of these data is US20090062222A1, “Methods for Sensitizing Cancer Cells to Inhibitors” (TRUSTEES OF BOSTON UNIVERSITY, priority 2005, published 2009).

As usually defined, the pIC50 is −log10 of the IC50, conventionally taken in molar units. The inhibition is the relative decrease from the control value, in per cent.

Data set [1] relates to HSP72. Description: HSP72 induction in PC-3 cells (heat shock, proteasome or HSP90 inhibitors), immunoblotting. Format: cell-based, human. Particulars: for inhibition at 10 µM: Homo sapiens. Background: Immunoblotting shows a protein as a band on a membrane.
Data set [2] has as its system PC-3 cells. Briefly: Clonogenic survival of PC-3 cells.
The test system of data set [3] is PC-3 cells. Description: Apoptosis by PARP cleavage in PC-3 cells.
The test system of a further data set is protein synthesis. Conditions: cited from earlier work.
Data set [4] has as its system HSP72 induction (CHO cells). Description: Inhibition of Hsp72 induction by heat shock in CHO cells (immunoblotting). Format: cell-based. Particulars: for Inhibition of Hsp72 induction, second step of the screening: 2 μM, 45° C. 10 min, then 6 hours at 37° C.; for Inhibition of Hsp72 induction, second step of the screening / pIC50: CHO cells; for Inhibition of Hsp72 induction by heat shock, NCI similarity set: concentrations between 2 and 10 μM.

In the next data set the test system is CHO cells. Briefly: Toxicity in CHO cells. Format: cell-based. Conditions: for pIC50: Cricetulus griseus, read-out: IC50 toxicity. The source says:
Three of these compounds, including emetine, tubulosine, and NZ28, have significant structural similarity.

Data set [5] concerns HSP72. Description: HSP72 induction in MM.1S cells (heat shock, proteasome or HSP90 inhibitors), immunoblotting. The format is cell-based, human. Particulars: for HSP72 induction by the drug: 16 hours; for inhibition at 10 µM: Homo sapiens, MM1.S, read-out: HSP72 inhibition, by Emunin (10 μM), MM.1s.
A further data set concerns CMV-driven GFP. Description: General protein synthesis: CMV-driven GFP expression in CHO cells. The format is cell-based. Particulars: added 16 hours post-infection, 24 hours, NZ28 2 μM, emunin 10 μM.
The subject of a further data set is HSP27. Description: HSP27 induction by proteasome and HSP90 inhibitors in MM.1S cells, immunoblotting. Particulars: VELCADE or Radicicol, emunin 10 μM, NZ28 2 μM added 5 hours before.
The next data set has as its system MM.1S cells. Briefly: Apoptosis by PARP cleavage in MM.1S cells.
Data set [6] concerns HSF1-activated Hsp70B promoter. Briefly: HSF1 activity: luciferase reporter under Hsp70B promoter in PC-3 cells after heat shock. Conditions: added 5 hours before 45° C. 10 min, overnight recovery. On the technique in general: Reporter assays use an easily measured gene product as a stand-in for the process of interest.
A further data set deals with HCT-116 cells. Description: Apoptosis by PARP cleavage in HCT-116 cells. Format: cell-based, human. The source says:
Sensitization to proteasome and Hsp90 inhibitors was seen when we tested additional cancer cells lines. In fact, depletion of HSF1 by treatment with siRNA in either a distinct prostate carcinoma line DU-145 or colon carcinoma HCT-116 cells led to suppression of the heat shock response and increased sensitivity to MG132 and 17-AAG (FIG. 2). […] Depletion of HSF1 in these cells led to a dramatic reduction of the constitutive Hsp72 levels (FIG. 2B) and very strong sensitization to the drugs (FIGS. 2C, 2D, and 2E).

[7] abbreviates: Cricetulus griseus, heat shock, read-out: IC50 HSP72 Induction Inhibition (CHO cells).
[8] abbreviates: Cricetulus griseus, heat shock (FIGS. 3A and 3B), read-out: IC50 for inhibition of Hsps induction.

pIC50: −log10 of the molar value. Read-outs that look alike come from different tables or passages of the source. Where a SMILES comes first, the peptide text is derived from it. The star is where a group is joined. Cbz = O=C(OCc1ccccc1)*

On to `C=CCNC1=C2C[C@@H](C)C[C@H](OC)[C@H](O)[C@@H](C)/C=C(\C)[C@H](OC(N)=O)[C@@H](OC)/C=C\C=C(/C)C(=O)NC(=CC1=O)C2=O` [17-AAG, 17-(allylamino)-17-demethoxygeldanamycin, reference compound], for which the “Hsp72 induction by the drug” value in the data set with HSP72 [1] is reported as “strongly induced”. In the data set with PC-3 cells [2] (wide range of concentrations), the “Sensitization by si-HSF1, colony forming ability” value is “about 5 fold”. Also, the “Increase in PARP cleavage on depletion of HSF1” value in the data set on PC-3 cells [3] (PC-3, 0.25 μM, 24 hours) is listed as 100%.

`CCC1CN2CCc3cc(OC)c(OC)cc3C2CC1CC1NCCc2cc(OC)c(OC)cc21` (centres unmarked) [Emetine, reference compound]: in the data set with protein synthesis, the “Concentration at which protein synthesis is inhibited” value was “above 10 μM”. The “Inhibition of Hsp72 induction, second step of the screening” value in data set [4] is reported as “inhibit Hsp72 induction”. The pIC50 (in data set [4] (setting [7]); with CHO cells (CHO cells)) was above 6.60 each time. Further, in the data set on CHO cells, the “Toxicity in an apoptotic assay” value is “showed toxicity”.

Take `CCC1CN2CCc3cc(OC)c(OC)cc3C2CC1CC1NCCc2cc(O)c(OC)cc21` (stereo not drawn) [Isocephaeline, Emetan-6′-ol, 7′,10,11-trimethoxy-,(1′beta)-]: the pIC50 (in [4] (setting [7]); in the data set with CHO cells (CHO)) was above 6.30 in each case. The “Inhibition of Hsp72 induction by heat shock, NCI similarity set” value (“Inhibition … NCI similarity set” for short) in [4] was “inhibit Hsp72 induction”.

In the case of `CC(C)C[C@@H](C=O)NC(=O)[C@H](CC(C)C)NC(=O)[C@H](CC(C)C)NC(=O)OCc1ccccc1` [MG132, N-carbobenzoxyl-Leu-Leu-leucinal, reference compound] (Cbz-Leu-Leu-Leu-aldehyde), the “Hsp72 induction by the drug” value in the data set with HSP72 [1] (PC-3 RetroQ cells, 24 hours) is listed as “strongly induced”. Also, in the data set with HSP72 [5] (MM.1S), the “HSP72 induction by the drug” value is “Strong induction”. In the data set with PC-3 cells [2] (between 0.25 μM and 2 μM), the “Sensitivity of si-HSF1 cells, colony forming ability” value is recorded as “very strong enhancement of sensitivity”. Besides, in the data set on PC-3 cells [3] (PC-3, 2 days), the “PARP cleavage, MG132 alone” value is reported as “approximately 10%”.

For the compound `COc1cc2c(cc1OC)CN1CCc3cc(OC)c(OC)cc3C1C2` (centres unmarked) [NZ50], the pIC50 in data set [4] (setting [7]) is below 5.00; in the data set on CHO cells (CHO cells) it was above 5.70.

In the case of `COc1ccc(CC2NCCc3cc(OC)c(OC)cc32)cc1OC` (centres unmarked) [NZ54], the results for the pIC50 (in data set [4] (setting [7]); in the data set with CHO cells (CHO cells)) were below 5.00 and above 5.70, respectively.

As for `COc1cc2c(cc1OC)C(CC1=CCN3CCc4ccccc4C3C1)NCC2` (centres unmarked) [NZ60], the figures for the pIC50 (in [4] (setting [7]); in the data set on CHO cells (CHO cells)) were below 5.00 and above 5.70, respectively.

As to `CCC1=C(C)CC2c3cc(OC)c(OC)cc3CCN2C1` (centres unmarked) [NZ61], the pIC50 is below 5.00 in data set [4] (setting [7]) and above 5.70 in the data set with CHO cells (CHO cells).

With `COc1cc2c(cc1OC)C(CC1=C(c3ccccc3)CN3CCc4cc(OC)c(OC)cc4C3C1)NCC2` (centres unmarked) [NZ62], the pIC50 in [4] (setting [7]) is below 5.00; in the data set on CHO cells (CHO cells), above 5.70.

On to `CCC1CN2CCc3cc(OC)c(OC)cc3C2CC1C1c2cc(OC)c(OC)cc2CCN1C(=O)CNC(=O)OC(C)(C)C` (centres unmarked) [NZ71], for which the inhibition at 10 µM in [4] (Cricetulus griseus, 10 min, CHO, Heat Shock 45° C., 10 min, 10 μM, read-out: HSP72 inhibition, by Emunin (10 μM)) turned out to be 95%; with HSP72 [1] (PC-3, 20 min, read-out: HSP72 inhibition, by Emunin (10 μM), PC-3, Heat Shock 45° C., 20 min), 80%; with HSP72 [1] (PC-3, read-out: HSP72 inhibition, by Emunin (10 μM), PC-3, HSP90 Inhibitor 17-AAG 2 μM), 60%; with HSP72 [1] (PC-3, read-out: HSP72 inhibition, by Emunin (10 μM), PC-3, Proteasome Inhibitor MG132 1 μM), 80%; in the data set on HSP72 [5] (4 min, Heat Shock 45° C., 4 min) it was 90%; in the data set on HSP72 [5] (HSP90 Inhibitor Radicicol 0.8 μM), 90%. Also, the inhibition at 10 µM with HSP72 [5] (Proteasome Inhibitor VELCADE 5 nM) stood at 95%. Further, the results for the pIC50 (in [4] (setting [8]); in [4] (setting [7]); with CHO cells (CHO cells)) were 5.30, 5.30 and below 5.00, respectively. In addition, the “Inhibition … NCI similarity set” value in [4] is recorded as “inhibit Hsp72 induction”. Besides, the “Inhibition of Hsp72 induction by 17-AAG” value in the data set with HSP72 [1] (PC-3 cells) was “only weak inhibition”. Moreover, the “Inhibition of GFP expression (CMV promoter)” value in the data set on CMV-driven GFP is reported as “No significant inhibition of GFP expression”. Also, the “Inhibition of Hsp27 induction” value in the data set on HSP27 was “inhibit HSP72 and HSP27 induction”. Also, the Cell growth inhibition result in the data set on CHO cells (CHO cells) is listed as “very little cell growth inhibition”. The “Toxicity” value with CHO cells (CHO cells) is on record as “non-toxic”. In the data set on MM.1S cells, the “PARP cleavage, emunin alone” value is recorded as “did not cause PARP cleavage”. Moreover, the “PARP cleavage, emunin and VELCADE together” value in the data set on MM.1S cells (VELCADE 5 nM + 10 μM emunin, overnight) is on record as 70%. Besides, in the data set on MM.1S cells (radicicol 0.5 μM + 10 μM emunin, 24 hours), the “PARP cleavage, radicicol and emunin” value is recorded as “about 50%”. Besides, in the data set on HSP72 [5] (MM.1S blocked stronger than PC-3), the “Inhibition of Hsp72 induction in response to Hsp90 inhibitors radicicol and 17-AAG” value is reported as “inhibited induction of Hsp72”. Also, the “Inhibition of HSP72 induction by proteasome inhibitors” value with HSP72 [5] (MM.1S, VELCADE or MG132 for 16 hours) was “almost completely inhibited HSP72 induction”. In addition, the “Colony forming ability, emunin alone” value in the data set with PC-3 cells [2] is “did not affect the colony forming ability”. Further, the “Inhibition of luciferase induction by heat shock (Hsp70B promoter reporter)” value in data set [6] is recorded as “about 40%”. Moreover, the “Sensitization of si-HSF1 PC-3 cells to MG-132” value in the data set on PC-3 cells [3] (HSF1-depleted PC-3 cells) is “no apparent sensitization”. Moreover, in the data set with PC-3 cells [3] (PC-3, 2 days), the “PARP cleavage, MG132 and emunin” value is reported as 50%. Besides, the Sensitization to radicicol result in the data set on PC-3 cells [3] (PC-3 cells) is reported as “little sensitization”.

Regarding `CCC1CN2CCc3cc(OC)c(OC)cc3C2CC1CC1NCCc2c1[nH]c1ccc(OC)cc21` (centres unmarked) [NZ72], the pIC50 in data set [4] (setting [7]) was 5.70; in the data set on CHO cells (CHO cells), below 5.70. Moreover, in data set [4], the “Inhibition … NCI similarity set” value was “inhibit Hsp72 induction”.

As for `CC(C)C[C@H](NC(=O)[C@H](Cc1ccccc1)NC(=O)c1cnccn1)B(O)O` [VELCADE®, bortezomib, reference compound], the “PARP cleavage, VELCADE alone” value in the data set on MM.1S cells (5 nM, overnight) was 30%. For the same compound, the “HSP72 induction by the drug” value with HSP72 [5] (MM.1S) is recorded as “Strong induction”.

Regarding `CCC1=C(CC2NCCc3cc(OC)c(OC)cc32)CC2c3cc(OC)c(OC)cc3CCN2C1` (centres unmarked) [dehydroemetine, reference compound], the pIC50 (in data set [4] (setting [7]); in the data set on CHO cells (CHO cells)) was above 6.30 in each case. The “Inhibition … NCI similarity set” value in data set [4] is “inhibit Hsp72 induction”.

For `COc1cccc2c1C(=O)c1c(O)c3c(c(O)c1C2=O)C[C@@](O)(C(=O)CO)C[C@@H]3O[C@H]1C[C@H](N)[C@H](O)[C@H](C)O1` [doxorubicin, reference compound], in the data set with PC-3 cells [3], the “Sensitization to apoptosis by si-HSF1” value is on record as “little or no sensitization”.

Consider `O=c1c(O)c(-c2ccc(O)c(O)c2)oc2cc(O)cc(O)c12` [quercetin, reference compound], for which the negative-log IC50 (pIC50) in data set [4] (setting [8]) is around 4.30.

As to `C[C@@H]1C[C@H]2O[C@@H]2/C=C\C=C\C(=O)Cc2c(Cl)c(O)cc(O)c2C(=O)O1` [radicicol], the “Sensitivity of control cells” value with HCT-116 cells (HCT-116 control cells) is “resistant”. Also, the “Sensitivity of si-HSF1 cells” value in the data set with HCT-116 cells (HCT-116 si-HSF1 cells) is listed as “quite sensitive”. Further, in the data set with MM.1S cells (0.5 μM, 24 hours), the “PARP cleavage, radicicol alone” value came to 10%.

On to `CCC1CN2CCc3cc(OC)c(OC)cc3C2CC1CC1NCCc2c1[nH]c1ccc(O)cc21` (centres unmarked) [tubulosine], for which the “Inhibition of Hsp72 induction, second step of the screening” value in [4] is “inhibit Hsp72 induction”. The pIC50 was 6.30 in data set [4] (setting [7]) and 6.60 in the data set on CHO cells (CHO). Also, in the data set on CHO cells, the “Toxicity in an apoptotic assay” value is “showed toxicity”.
